Data taken from patent US20260022114A1, “N-(5-SUBSTITUTED-[(1,3,4-THIADIAZOLYL) OR (1,3-THIAZOLYL)](SUBSTITUTED)CARBOXAMIDE COMPOUNDS, PHARMACEUTICAL COMPOSITIONS, AND METHODS OF PREPARING THE AMIDE COMPOUNDS AND OF THEIR USE” (Repare Therapeutics Inc., priority 2022, published 2026).

Each compound was assayed against PolQ ATPase enzyme (1-894) (Homo sapiens (Human), UniProt O75417) (assay: Polθ ATPase enzymatic assay (0.5 nM enzyme concentration), ADP-Glo). Conditions: 0.5 nM PolQ ATPase enzyme (1-894); average IC50.
Format: biochemical
Procedure: PolQ ATPase enzyme (1-894) at 0.5 nM is incubated with a 10-point concentration response of inhibitors for 15 min at rt in the following buffer: 50 mM Tris Cl pH 7.5, 10% glycerol, 5 mM DTT, 10 mM MgCl2, 0.1 mg/ml BSA. Following pre-incubation with inhibitors, DNA (Fork C) at 20 nM and ATP at 100 μM are added to start the reaction. Enzymatic reaction proceeds at rt for 180 min. ATP consumption is measured using the ADP-Glo assay from Promega. Luminescence is read on the Envision and IC50 are determined using the variable slope 4-parameters equation.
Oligos are annealed by heating at 95° C. for 5 min in the following buffer (10 mM Tris-HCl PH7.5, 50 mM NaCl, 1 mM EDTA) and cooled to rt. […]

PolQ ATPase enzyme (1-894), sequence (O75417 1-894): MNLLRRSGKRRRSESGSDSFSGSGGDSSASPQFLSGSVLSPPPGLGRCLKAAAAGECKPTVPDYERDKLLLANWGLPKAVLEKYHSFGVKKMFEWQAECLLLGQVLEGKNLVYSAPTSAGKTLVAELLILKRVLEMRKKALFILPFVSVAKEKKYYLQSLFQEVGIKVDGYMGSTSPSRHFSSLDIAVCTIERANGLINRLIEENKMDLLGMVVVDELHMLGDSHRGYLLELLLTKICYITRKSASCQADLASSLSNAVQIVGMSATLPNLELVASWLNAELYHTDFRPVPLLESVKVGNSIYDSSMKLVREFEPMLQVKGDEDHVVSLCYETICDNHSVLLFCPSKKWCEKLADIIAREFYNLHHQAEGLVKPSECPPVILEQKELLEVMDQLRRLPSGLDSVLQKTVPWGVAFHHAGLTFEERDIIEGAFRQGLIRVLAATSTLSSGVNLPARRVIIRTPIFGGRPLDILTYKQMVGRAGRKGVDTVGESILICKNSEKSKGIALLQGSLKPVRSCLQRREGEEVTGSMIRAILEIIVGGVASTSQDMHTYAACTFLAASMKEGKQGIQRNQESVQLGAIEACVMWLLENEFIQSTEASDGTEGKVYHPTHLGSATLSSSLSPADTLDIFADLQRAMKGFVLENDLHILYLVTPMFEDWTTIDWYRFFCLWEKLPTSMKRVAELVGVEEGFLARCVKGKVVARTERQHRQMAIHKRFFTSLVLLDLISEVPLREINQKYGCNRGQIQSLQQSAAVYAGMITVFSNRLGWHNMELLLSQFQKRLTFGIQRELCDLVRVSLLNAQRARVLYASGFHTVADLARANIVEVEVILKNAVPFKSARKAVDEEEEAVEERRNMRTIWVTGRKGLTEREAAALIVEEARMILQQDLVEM

Row | SMILES | IC50
1 | COc1cnc(C(F)(F)F)nc1-c1cc(CC#N)ccc1C(=O)Nc1nnc(C#CC2CC2)s1 [Compound 482] | 0.73 nM
2 | C#C[C@H]1C[C@@H]1c1nnc(NC(=O)c2cnc(N3CCN(C(=O)OCC)C4(CC4)C3=O)cc2-c2cc(C(F)F)ncc2OC)s1 [Compound 565] | 1.1 nM
3 | COc1cnc(C(F)F)cc1-c1cc(-n2ccc(C)cc2=O)ncc1C(=O)Nc1nnc(C2CC3(CCC3)C2)s1 [Compound 566] | 2 nM
4 | COc1cnc(C(F)F)cc1-c1cc(-n2cc(C)c(C)cc2=O)ncc1C(=O)Nc1nnc(C#CC2CC2)s1 [Compound 476] | < 0.25 nM
5 | COc1cncc(-c2cc(-c3cc(C(F)F)ncc3OC)c(C(=O)Nc3nnc(C#CC4CC4)s3)cn2)c1 [Compound 525] | 1.3 nM
6 | COc1cnc(C(F)F)cc1-c1cc(C#CCC(C)(C)O)ncc1C(=O)Nc1nnc([C@H]2C[C@@H]2C)s1 (racemic) [Compound 620] | 3.2 nM
7 | COc1cnc(C(F)F)cc1-c1cc(-n2ccc(C3CCN(C)CC3)cc2=O)ncc1C(=O)Nc1nnc(C#CC2CC2)s1 [Compound 536] | 0.96 nM
8 | C#C[C@H]1C[C@H](c2nnc(NC(=O)c3cnc(-n4ccc(C)cc4=O)cc3-c3cc(C(F)F)ncc3OC)s2)C1 [Compound 595] | 2.9 nM
9 | COc1cnc(C(F)F)cc1-c1cc(C#CCN2CCOCC2)ncc1C(=O)Nc1nnc([C@H]2C[C@@H]2c2cscn2)s1 (racemic) [Compound 634, 2′-(difluoromethyl)-5′-methoxy-6-(3-morpholinoprop-1-yn-1-yl)-N-(5-((1S,2S)-2-(thiazol-4-yl)cyclopropyl)-1,3,4-thiadiazol-2-yl)-[4,4′-bipyridine]-3-carboxamide] | 0.86 nM
10 | C#C[C@H]1C[C@@H]1c1nnc(NC(=O)c2cnc(-n3ccc(N4CCN(C)CC4)cc3=O)cc2-c2cc(C(F)F)ncc2OC)s1 [Compound 548] | 0.79 nM
11 | C=C1CC(c2nnc(NC(=O)c3cnc(-n4ccc(C)cc4=O)cc3-c3cc(C(F)F)ncc3OC)s2)C1 [Compound 597] | 3.6 nM
12 | C#C[C@@H]1CC1c1nnc(NC(=O)c2cnc(-n3ccc(C)cc3=O)cc2-c2cc(C(F)F)ncc2OC)s1 (single isomer, unassigned) [Compound 480] | 1.7 nM
13 | COc1cnc(C(F)F)cc1-c1cc(-n2ccc(C)cc2=O)ncc1C(=O)Nc1nnc(COc2cnn(C)c2)s1 [Compound 621] | 6.3 nM
14 | Cn1ccc(C2C=C(c3cc(C(F)(F)F)ncc3Cl)C(C(=O)Nc3ncc(C#CC4CC4)s3)=CC2=O)n1 (stereo not shown) [Compound 479] | 7.4 nM
15 | COc1cnc(C(F)F)cc1-c1cc(C#CCC(C)(C)O)ncc1C(=O)Nc1nnc([C@H]2C[C@@H]2c2ccn(C)n2)s1 (racemic) [Compound 622] | 1.4 nM
16 | COc1cnc(C(F)F)cc1-c1cc(N2CCN(C3CC3)C3(CC3)C2=O)ncc1C(=O)Nc1nnc(C#CC2CC2)s1 [Compound 510] | 0.92 nM
17 | COc1cnc(C(F)F)cc1-c1cc(-c2ccc(C)nc2OC)ncc1C(=O)Nc1nnc(C#CC2CC2)s1 [Compound 501] | 0.93 nM
18 | COc1cnc(C(F)F)cc1-c1cc(-c2ccc(=O)n(C)c2)ncc1C(=O)Nc1nnc(C#CC2CC2)s1 [Compound 524] | 2.3 nM
19 | COc1cnc(C(F)F)cc1-c1cc(-n2ncc(C)cc2=O)ncc1C(=O)Nc1nnc(C2C[C@@H]2C)s1 (single isomer, unassigned) [Compound 642] | 0.72 nM
20 | COc1cnc(C(F)F)cc1-c1cc(-n2ccc(C)cc2=O)ncc1C(=O)Nc1nnc(CC(=O)N(C)C)s1 [Compound 603] | 40 nM
21 | COc1cnc(C(F)F)cc1-c1cc(N2CCCCS2(=O)=O)ncc1C(=O)Nc1nnc(C#CC2CC2)s1 [Compound 521] | 15 nM
22 | COc1cnc(C(F)F)cc1-c1cc(-n2ccc(C)cc2=O)ncc1C(=O)Nc1nnc([C@H]2C[C@@H]2c2ccnn2C)s1 (racemic) [Compound 582] | 1.3 nM
23 | COc1cnc(C(F)F)cc1-c1cc(N2C[C@@H](C)OCC2=O)ncc1C(=O)Nc1nnc(C#CC2CC2)s1 [Compound 502] | 2.4 nM

Now from value to compound:

Row | IC50 | SMILES
24 | 0.45 nM | COC(=O)C1CCN(c2cc(-c3cc(C(F)F)ncc3OC)c(C(=O)Nc3nnc(C#CC4CC4)s3)cn2)C(=O)C1 (stereo not shown) [Compound 497]
25 | 0.7 nM | COc1cnc(C(F)F)cc1-c1cc(C#CCN2CCCCC2)ncc1C(=O)Nc1nnc(C#CC2CC2)s1 [Compound 589]
26 | 0.47 nM | C=C[C@H]1C[C@@H]1c1nnc(NC(=O)c2cnc(-n3ccc(C)cc3=O)cc2-c2cc(C(F)F)ncc2OC)s1 (racemic) [Compound 585]
27 | < 0.25 nM | C#C[C@H]1C[C@@H]1c1nnc(NC(=O)c2cnc(-n3cccc(F)c3=O)cc2-c2cc(C(F)F)ncc2OC)s1 [Compound 562, 2″-(difluoromethyl)-N-(5-((1S,2S)-2-ethynylcyclopropyl)-1,3,4-thiadiazol-2-yl)-3-fluoro-5″-methoxy-2-oxo-2H-[1,2′:4′,4″-terpyridine]-5′-carboxamide]
28 | 0.48 nM | COc1cnc(C(F)F)cc1-c1cc(-n2ccc(C)cc2=O)ncc1C(=O)Nc1nnc([C@H]2C[C@@H]2c2ccccn2)s1 (racemic) [Compound 592]
29 | 0.33 nM | C#C[C@H]1CC1c1nnc(NC(=O)c2cnc(N3CCN(C(=O)OC)C4(CC4)C3=O)cc2-c2cc(C(F)F)ncc2OC)s1 (single isomer, unassigned) [Compound 636]
30 | 0.55 nM | COc1cnc(C(F)F)cc1-c1cc(C#CCCN2CCOCC2)ncc1C(=O)Nc1nnc(C#CC2CC2)s1 [Compound 541]
31 | < 0.25 nM | COc1cnc(C(F)F)cc1-c1cc(-n2ccc(C#N)cc2=O)ncc1C(=O)Nc1nnc(C#CC2CC2)s1 [Compound 493]
32 | 0.47 nM | COc1cnc(C(F)F)cc1-c1cc(-n2cc(C)ccc2=O)ncc1C(=O)Nc1nnc([C@H]2C[C@@H]2C(F)(F)F)s1 [Compound 551]
33 | 0.44 nM | COc1cnc(C(F)F)cc1-c1cc(C#CC(C)(C)N2CCOCC2)ncc1C(=O)Nc1nnc(C#CC2CC2)s1 [Compound 528]
34 | 0.27 nM | COc1cnc(C(F)F)cc1-c1cc(-n2ccncc2=O)ncc1C(=O)Nc1nnc(C#CC2CC2)s1 [Compound 531]
35 | < 0.25 nM | COc1cnc(C(F)F)cc1-c1cc(-n2ccc(CO)cc2=O)ncc1C(=O)Nc1nnc(C#CC2CC2)s1 [Compound 490]
36 | 0.54 nM | COc1cnc(C(F)F)cc1-c1cc(C#CCN2CCOCC2)ncc1C(=O)Nc1nnc([C@H]2C[C@@H]2c2cncs2)s1 (racemic) [Compound 640]
37 | 0.27 nM | COc1cnc(C(F)F)cc1-c1cc(-n2ccc(OC3COC3)cc2=O)ncc1C(=O)Nc1nnc(C#CC2CC2)s1 [Compound 610]
38 | 0.38 nM | CCOC(=O)N1CCN(c2cc(-c3cc(C(F)F)ncc3OC)c(C(=O)Nc3nnc(C#CC4CC4)s3)cn2)C(=O)C12CC2 [Compound 564]
39 | < 0.25 nM | C#C[C@H]1C[C@@H]1c1nnc(NC(=O)c2cnc(-n3cccc(Cl)c3=O)cc2-c2cc(C(F)F)ncc2OC)s1 [Compound 591]
40 | 0.6 nM | COc1cnc(C(F)F)cc1-c1cc(C#CCN2CCCC2)ncc1C(=O)Nc1nnc(C#CC2CC2)s1 [Compound 600]
41 | < 0.25 nM | COc1cnc(C(F)F)cc1-c1cc(C#CCN2CCNC2=O)ncc1C(=O)Nc1nnc(C#CC2CC2)s1 [Compound 559]
42 | < 0.25 nM | COc1cnc(C(F)F)cc1-c1cc(N2CCC(C(C)(C)C)CC2=O)ncc1C(=O)Nc1nnc(C#CC2CC2)s1 (racemic) [Compound 444]
43 | < 0.25 nM | COc1cnc(C(F)F)cc1-c1cc(C#CCN2CCCC2=O)ncc1C(=O)Nc1nnc([C@H]2C[C@@H]2c2cscn2)s1 (racemic) [Compound 641]
